Counter-ions that a name gives are not always drawn.

In data set [1] the test system is 18f-NLuc reporter virus. The data set can be described thus: microbe, parasite or virus in culture. The class given is cell-based, Hepatitis A virus. As to conditions: for activity at 10 µM: Hepatovirus A, Huh-7.5.1, 72 h, read-out: Normalized HAV production.
For data set [2], the system named is Huh-7.5.1 cells. The data set can be described thus: Cell viability in the chemical screen (Cell TiterGlo). As to conditions: 10 µM compound, 72 h. For orientation: In ATP-based viability assays light output follows the ATP content of the culture.

For `OC[C@H]1O[C@@H](O[C@@H]2OC=C[C@H]3[C@H](O)[C@@H]4O[C@]4(CO)[C@@H]23)[C@H](O)[C@@H](O)[C@@H]1O` [Catalpol], the activity at 10 µM in data set [1] was found to be 98%. For the same molecule, in data set [2], the “Viability Percent DMSO” value came to 128 Percent DMSO.
The like results for `O=C(/C=C/c1ccc(O)cc1)c1ccc(O)cc1O` [Isoliquiritigenin] were, in that order, 104% and 100 Percent DMSO.
The like results for `O=C1Nc2ccc(Cl)cc2[C@@](C#CC2CC2)(C(F)(F)F)O1` [Efavirenz] were, in that order, 46% and 165 Percent DMSO.
As to `CCS(=O)(=O)CCn1c([N+](=O)[O-])cnc1C` [Tinidazole], in data set [1], the activity at 10 µM turned out to be 78%. In addition, the “Viability Percent DMSO” value in data set [2] stood at 108 Percent DMSO.
For `Cc1nc(Nc2ccc(F)cc2)nc(N2CCc3ccccc3C2C)c1C` (stereo not shown) [Revaprazan hydrochloride] the same measures were 87% and 115 Percent DMSO.
Take `CC1(C)S[C@@H]2[C@H](NC(=O)[C@H](N)c3ccccc3)C(=O)N2[C@H]1C(=O)O` [Ampicillin Trihydrate]: in data set [1], the activity at 10 µM is 76%. Also, the “Viability Percent DMSO” value in data set [2] is 116 Percent DMSO.
Regarding `CC(C)=O.COC(=O)N[C@H](C(=O)N1CC2(CC2)C[C@H]1c1ncc(-c2ccc3c(c2)C(F)(F)c2cc(-c4ccc5nc([C@@H]6[C@H]7CC[C@H](C7)N6C(=O)[C@@H](NC(=O)OC)C(C)C)[nH]c5c4)ccc2-3)[nH]1)C(C)C` [Ledipasvir acetone], in data set [1], the “Normalized HAV production” value worked out at 0.48. In addition, in data set [2], the “Viability Percent DMSO” value is listed as 172 Percent DMSO.
For the molecule `C[C@@H]1O[C@@H](O[C@H]2[C@H](Oc3cc(O)c4c(c3)O[C@H](c3ccc(O)cc3)CC4=O)O[C@H](CO)[C@@H](O)[C@@H]2O)[C@H](O)[C@H](O)[C@H]1O` [Naringin], the activity at 10 µM in data set [1] stood at 124%. For the same molecule, in data set [2], the “Viability Percent DMSO” value is listed as 115 Percent DMSO.
For `C[C@H]1CC[C@@]2(O)C(C)(C)[C@@H]3CC[C@@]2(C)[C@H]1C3` [Patchouli alcohol], in data set [1], the “Normalized HAV production” value turned out to be 1.10. Moreover, the “Viability Percent DMSO” value in data set [2] is listed as 122 Percent DMSO.
Consider `CN(C)[C@@H]1C(O)=C(C(N)=O)C(=O)[C@@]2(O)C(O)=C3C(=O)c4c(O)cccc4[C@@](C)(O)[C@H]3C[C@@H]12` [Tetracycline], for which, in data set [1], the activity at 10 µM stood at 89%. Also, the “Viability Percent DMSO” value in data set [2] is recorded as 114 Percent DMSO.
With `Cc1cc(C#N)cc(C)c1Oc1nc(Nc2ccc(C#N)cc2)nc(N)c1Br` [Etravirine], in data set [1], the activity at 10 µM turned out to be 113%. In addition, the “Viability Percent DMSO” value in data set [2] is 112 Percent DMSO.
For `COc1cc(O)c(CC=C(C)C)c(O)c1C(=O)/C=C/c1ccc(O)cc1` [Xanthohumol] the same measures were 92% and 102 Percent DMSO.
Turning to `O=C(Nc1ncc([N+](=O)[O-])s1)c1ccccc1O` [Tizoxanide], the activity at 10 µM in data set [1] is 113%. Also, the “Viability Percent DMSO” value in data set [2] stood at 72 Percent DMSO.
`COc1ccc(C2CNC(=O)C2)cc1OC1CCCC1` (stereo not shown) [Rolipram]: in data set [1], the activity at 10 µM turned out to be 130%. Moreover, the “Viability Percent DMSO” value in data set [2] was determined as 113 Percent DMSO.
In the case of `Cl.N=C(N=C(N)N)N1CCOCC1` [Moroxydine hydrochloride], the “Normalized HAV production” value in data set [1] came out at 1.21. In data set [2], the “Viability Percent DMSO” value is given as 125 Percent DMSO.
With `CC1(C)CC[C@]2(C(=O)O)CC[C@]3(C)C(=CC[C@@H]4[C@@]5(C)CC[C@H](O)C(C)(C)[C@@H]5CC[C@]43C)[C@@H]2C1` [Oleanolic Acid], the activity at 10 µM in data set [1] was 82%. Also, in data set [2], the “Viability Percent DMSO” value was 118 Percent DMSO.
For `C[C@H]1CO[C@@H]2Cn3cc(C(=O)NCc4ccc(F)cc4F)c(=O)c(O)c3C(=O)N12` [Cabotegravir], the activity at 10 µM in data set [1] was found to be 49%. Moreover, the “Viability Percent DMSO” value in data set [2] came to 170 Percent DMSO.
For `COc1cc(NC(=O)Nc2cccc(CNC(=O)O[C@H]3CCOC3)c2)ccc1-c1cnco1` [Merimepodib] the same measures were 34% and 159 Percent DMSO.
For `Cc1cn([C@H]2C[C@H](N=[N+]=[N-])[C@@H](CO)O2)c(=O)[nH]c1=O` [Zidovudine] the same measures were 131% and 92 Percent DMSO.
The like results for `CN(C)[C@@H]1C(O)=C(C(N)=O)C(=O)[C@@]2(O)C(O)=C3C(=O)c4c(O)cccc4[C@@](C)(O)[C@H]3[C@H](O)[C@@H]12` [Oxytetracycline] were, in that order, 87% and 103 Percent DMSO.
Regarding `C[C@@H](c1ncncc1F)[C@](O)(Cn1cncn1)c1ccc(F)cc1F` [Voriconazole], the activity at 10 µM in data set [1] was 133%. Moreover, the “Viability Percent DMSO” value in data set [2] worked out at 123 Percent DMSO.
For `COc1ncnc(NS(=O)(=O)c2ccc(N)cc2)c1OC` [Sulfadoxine] the same measures were 69% and 118 Percent DMSO.
With `COc1cc2c(cc1Cc1cccc(Cl)c1F)c(=O)c(C(=O)O)cn2[C@H](CO)C(C)C` [Elvitegravir], the activity at 10 µM in data set [1] turned out to be 95%. For the same molecule, the “Viability Percent DMSO” value in data set [2] is given as 118 Percent DMSO.
For `Nc1nc(O)c2ncn(COC(CO)CO)c2n1` [Ganciclovir] the same measures were 87% and 115 Percent DMSO.
For `C=C1CC[C@@H]2[C@](C)(CO)[C@H](O)CC[C@@]2(C)[C@@H]1C/C=C1/C(=O)OC[C@H]1O` [Andrographolide] the same measures were 86% and 106 Percent DMSO.
In the case of `CC(C)[C@H](N)C(=O)OCCOCn1cnc2c(=O)[nH]c(N)nc21` [Valacyclovir hydrochloride], the activity at 10 µM in data set [1] is 87%. In addition, the “Viability Percent DMSO” value in data set [2] is 117 Percent DMSO.
Take `O=c1[nH]c(=O)n([C@H]2C[C@H](O)[C@@H](CO)O2)cc1F` [Floxuridine]: in data set [1], the activity at 10 µM is 42%. For the same molecule, in data set [2], the “Viability Percent DMSO” value was 86 Percent DMSO.
With `Cc1cc(O)cc(C)c1Cl` [Chloroxylenol], the activity at 10 µM in data set [1] was found to be 90%. The “Viability Percent DMSO” value in data set [2] is recorded as 108 Percent DMSO.
Take `O=c1[nH]cnc2c1ncn2[C@H]1CC[C@@H](CO)O1` [Didanosine]: in data set [1], the activity at 10 µM is 155%. Also, the “Viability Percent DMSO” value in data set [2] was determined as 108 Percent DMSO.
The like results for `OC[C@H]1O[C@@H]2O[C@H]3[C@H](O)[C@@H](O)[C@@H](O[C@H]4[C@H](O)[C@@H](O)[C@@H](O[C@H]5[C@H](O)[C@@H](O)[C@@H](O[C@H]6[C@H](O)[C@@H](O)[C@@H](O[C@H]7[C@H](O)[C@@H](O)[C@@H](O[C@H]8[C@H](O)[C@@H](O)[C@@H](O[C@H]1[C@H](O)[C@H]2O)O[C@@H]8CO)O[C@@H]7CO)O[C@@H]6CO)O[C@@H]5CO)O[C@@H]4CO)O[C@@H]3CO` [Beta-Cyclodextrin] were, in that order, 72% and 117 Percent DMSO.
For `O=C1c2cccc(O)c2C(=O)c2c(O)cc(CO)cc21` [Aloe-emodin] the same measures were 118% and 90 Percent DMSO.
The like results for `CC(C)OC(=O)C1=CN(C(=O)c2ccc(F)c(F)c2)CC(C)(C)c2c1[nH]c1ccccc21` [Turofexorate Isopropyl] were, in that order, 100% and 161 Percent DMSO.
In the case of `O=C(Nc1ccc(O)cc1)c1ccccc1O` [Osalmid], the activity at 10 µM in data set [1] stood at 132%. Moreover, the “Viability Percent DMSO” value in data set [2] was 93 Percent DMSO.
`CC(C)[C@H](N)C(=O)OCC(CO)OCn1cnc2c(=O)nc(N)[nH]c21` (stereo partly shown) [Valganciclovir hydrochloride]: the activity at 10 µM in data set [1] is 90%. Also, the “Viability Percent DMSO” value in data set [2] is recorded as 110 Percent DMSO.
The like results for `COc1cnc(-n2cnc(C)n2)c2c1c(C(=O)C(=O)N1CCN(C(=O)c3ccccc3)CC1)cn2COP(=O)(O)O` [Fostemsavir] were, in that order, 92% and 129 Percent DMSO.
The like results for `Cc1cccc(C)c1OCC(=O)N[C@@H](Cc1ccccc1)[C@@H](O)C[C@H](Cc1ccccc1)NC(=O)[C@H](C(C)C)N1CCCNC1=O` [Lopinavir] were, in that order, 43% and 126 Percent DMSO.
For `CC(C)OC(=O)[C@H](C)N[P@](=O)(OC[C@H]1O[C@@H](n2ccc(=O)[nH]c2=O)[C@](C)(F)[C@@H]1O)Oc1ccccc1` [Sofosbuvir] the same measures were 38% and 130 Percent DMSO.
`NC(=O)N1CCC(CC(=O)N2CCC([C@H]3c4ncc(Br)cc4CCc4cc(Cl)cc(Br)c43)CC2)CC1` [Lonafarnib]: the activity at 10 µM in data set [1] worked out at 18%. Further, the “Viability Percent DMSO” value in data set [2] stood at 167 Percent DMSO.
With `CC(=O)Oc1c(C)c(C)c2c(c1C)CCC(C)(CCC[C@H](C)CCC[C@H](C)CCCC(C)C)O2` (stereo partly shown) [Vitamin E Acetate], in data set [1], the activity at 10 µM was found to be 133%. In data set [2], the “Viability Percent DMSO” value came to 82 Percent DMSO.
For the molecule `Cc1ccnc2c1NC(=O)c1cccnc1N2C1CC1` [Nevirapine], the activity at 10 µM in data set [1] was found to be 104%. The “Viability Percent DMSO” value in data set [2] came to 100 Percent DMSO.
Regarding `COc1cc2ncnc(Nc3cccc(Cl)c3)c2cc1OC` [AG-1478], the “Normalized HAV production” value in data set [1] came out at 0.51. The “Viability Percent DMSO” value in data set [2] was 164 Percent DMSO.
Take `CCOC(=O)CCC(=O)O[C@H]1[C@H](O[C@@H]2[C@@H](C)[C@H](O[C@H]3C[C@@](C)(OC)[C@@H](O)[C@H](C)O3)[C@@H](C)C(=O)O[C@H](CC)[C@@](C)(O)[C@H](O)[C@@H](C)C(=O)[C@H](C)C[C@@]2(C)O)O[C@H](C)C[C@@H]1N(C)C` [Erythromycin ethylsuccinate]: the activity at 10 µM in data set [1] came out at 60%. Besides, the “Viability Percent DMSO” value in data set [2] is reported as 107 Percent DMSO.
Turning to `Nc1ncnc2c1ncn2[C@@H]1O[C@H](COP(=O)(O)O)[C@@H](O)[C@H]1O.O` [Adenosine 5'-monophosphate monohydrate], the activity at 10 µM in data set [1] was 93%. Also, the “Viability Percent DMSO” value in data set [2] is listed as 115 Percent DMSO.
In the case of `COc1ccc([C@H]2OC[C@H]3[C@@H]2CO[C@H]3c2ccc(O[C@@H]3O[C@H](CO)[C@@H](O)[C@H](O)[C@H]3O)c(OC)c2)cc1OC` [Forsythin], the “Normalized HAV production” value in data set [1] was found to be 1.06. For the same molecule, the “Viability Percent DMSO” value in data set [2] is given as 127 Percent DMSO.

The values above are taken from publication PMC12282101, “Heat shock protein 90 chaperone activity is required for hepatitis A virus replication” (Journal of Virology, 2025).
